In article PMC3605511, “Tumor P-Glycoprotein Correlates with Efficacy of PF-3758309 in in vitro and in vivo Models of Colorectal Cancer” (Frontiers in Pharmacology, 2013):

What was measured:
P-gp = target: T1, P-gp (Homo sapiens, UniProt P08183); assay: MDR1-MDCK transwell assay (P-gp efflux); assay type: in vitro ADME; settings: dog, ratio of B → A flux to A → B flux, >2 = substrate
T1 construct: expressed in transfected cells; host or cells: MDR1-MDCK cells (canine kidney MDCK)
Experimental: (§1) Permeability and transporter substrate assays were performed as previously published (Feng et al., [2008]; Callegari et al., [2011]; Di et al., [2011]). Permeability assays were conducted in MDCKII-LE cells, which were generated by isolation of a subpopulation of cells with low expression of endogenous P-gp (Feng et al., [2008]; Callegari et al., [2011]; Di et al., [2011]). The use of MDCKII-LE cells are used to measure the passive permeability of compounds in place of MDCK wild-type or Caco-2 cells since both MDCK wild-type and Caco-2 cells are known to have some level of endogenous transporter expression which can affect the permeability measurement. P-gp efflux was determined in MDR1-MDCK cells and BCRP efflux was measured in BCRP-MDCKII-LE cells.
(§2) MDR1-MDCK and BCRP-MDCKII-LE transwell assays measure the effect of P-gp and BCRP, respectively, on transcellular flux. The efflux ratio, ratio of the B → A flux to the A → B flux, of PF-309 was measured to be 34.9 ± 7.9 in the MDR1-MDCK assay, indicating it is a strong substrate for P-gp. PF-309 was also determined to be substrate for BCRP as the efflux ratio was measured to be 7.6 ± 1.1. As a reference, compounds with efflux ratios >2 are considered to be substrates (Callegari et al., [2011]).

BCRP = target: T2, BCRP (Homo sapiens, UniProt Q9UNQ0); assay: BCRP-MDCKII-LE transwell assay (BCRP efflux); assay type: in vitro ADME; design: A → B: scale not given here
T2 construct: expressed in transfected cells; host or cells: BCRP-MDCKII-LE cells (canine MDCKII subpopulation with low endogenous P-gp)
Experimental: as §1, §2

GEO = assay: Cell proliferation assay, GEO; assay type: cell-based; settings: Homo sapiens, 72 h, SRB assay
Experimental: (§3) Cytotoxic/proliferation effects were determined using the sulforhodamine B (SRB) assay (Skehan et al., [1990]) or by resazurin. Briefly, cells in logarithmic growth phase were transferred to 96 well flat bottom plates with lids. One-hundred microliter cell suspensions containing 1500–5000 viable cells were plated into each well and incubated overnight prior to exposure with increasing concentrations of PF-309 for 3–5 days, dependent upon cell type. Media was removed and cells were fixed with cold 10% trichloroacetic acid for 30 min at 4°C. Cells were then washed with water and stained with 0.4% SRB (Fisher Sci., Pittsburgh, PA, USA) for 30 min at room temperature, washed again with 1% acetic acid, followed by stain solubilization with 10 mM tris at room temperature. The plate was then read on a plate reader (Biotek Synergy 2, Winooski, VT, USA) set at an absorbance wavelength of 565 nm. Cell proliferation curves were derived from the raw absorbance (OD) data.
(§4) Since PF-309 appeared to be a strong P-gp and BCRP substrates, we sought to evaluate if the transporters influenced sensitivity in vitro. We evaluated the sensitivity of CRC cell lines to PF-309 treatment in a panel of 27 lines. Cells were exposed to PF-309 at a range of concentrations for 72 h and cell content measured by SRB assay (see Pitts et al., [2013]). […]

NCIH508 = assay: Cell proliferation assay, NCIH508; assay type: cell-based; settings: Homo sapiens, NCI-H508; NCIH508, 72 h, SRB assay
Experimental: as §3, §4

HT29 = assay: Cell proliferation assay, HT29; assay type: cell-based; settings: Homo sapiens, HT-29; HT29, 72 h, SRB assay
Experimental: as §3, §4

SW480 = assay: Cell proliferation assay, SW480; assay type: cell-based; settings: Homo sapiens; SW480, 72 h, SRB assay
Experimental: as §3, §4

HCT116 = assay: Cell proliferation assay, HCT116; assay type: cell-based; settings: Homo sapiens, HCT-116; HCT116, 72 h, SRB assay
Experimental: as §3, §4

CUCRC026 CRC PDTX model = assay: Patient derived tumor xenograft efficacy, CUCRC026; assay type: in vivo, mice; settings: 25 mg/kg orally twice daily, 22–56 days, end of study tumor volumes
Experimental: For patient tumor xenografts, surgical specimens of patients undergoing either removal of a primary or metastatic tumor at the University of Colorado Hospital are implanted subcutaneously into five mice for each patient with a 10-G trochar. After a subsequent growth and passage in mice, tumors are excised, and expanded into cohorts for treatment (n = 6–15 per group). Mice were treated with PF-309 or vehicle (0.5% methylcellulose) for 22–56 days (until control tumor volume reach ∼1500 mm^3) twice daily (BID) by oral gavage (PO). Monitoring of mice and measurements of tumors were conducted as described above. % Growth Inhibition= (average control volume−average treated volume)/average control volume×100% In addition to the cell line xenografts, we also treated 12 different patient derived tumor xenograft (PDTX) CRC models with PF-309 (Figure 6). We were unable to assess how ABCB1 gene expression correlated with efficacy in these models. The PDTX models are propagated in vivo, are not immortalized, and are not grown in in vitro culture. […] Tumor and plasma sample pairs were collected from animals at the end of study for eight tumor models (three cell line xenografts and five PDTX models) and concentrations of PF-309 were measured. […]

[1] = End of study tumor and plasma concentrations (LC/MS/MS); assay type: in vivo; settings: mice, trough (6–8 h)

T2 sequence (Q9UNQ0 whole entry): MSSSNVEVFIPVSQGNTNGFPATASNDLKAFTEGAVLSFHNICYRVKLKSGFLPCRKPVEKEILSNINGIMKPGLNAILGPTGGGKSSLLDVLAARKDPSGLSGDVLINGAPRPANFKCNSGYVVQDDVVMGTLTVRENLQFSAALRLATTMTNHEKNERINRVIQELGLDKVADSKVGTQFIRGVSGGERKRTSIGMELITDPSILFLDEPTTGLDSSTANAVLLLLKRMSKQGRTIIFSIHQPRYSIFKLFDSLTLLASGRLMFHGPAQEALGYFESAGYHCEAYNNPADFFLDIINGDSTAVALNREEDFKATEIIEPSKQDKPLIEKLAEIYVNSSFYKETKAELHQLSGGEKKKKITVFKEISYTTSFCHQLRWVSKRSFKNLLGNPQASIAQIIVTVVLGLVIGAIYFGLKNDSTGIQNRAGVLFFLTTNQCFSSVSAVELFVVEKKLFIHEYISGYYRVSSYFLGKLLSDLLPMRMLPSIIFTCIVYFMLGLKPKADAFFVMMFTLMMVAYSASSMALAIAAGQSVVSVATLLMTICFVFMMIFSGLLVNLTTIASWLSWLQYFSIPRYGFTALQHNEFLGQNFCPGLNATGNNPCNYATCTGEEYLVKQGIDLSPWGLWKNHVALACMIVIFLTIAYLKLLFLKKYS
T1 sequence (P08183 whole entry): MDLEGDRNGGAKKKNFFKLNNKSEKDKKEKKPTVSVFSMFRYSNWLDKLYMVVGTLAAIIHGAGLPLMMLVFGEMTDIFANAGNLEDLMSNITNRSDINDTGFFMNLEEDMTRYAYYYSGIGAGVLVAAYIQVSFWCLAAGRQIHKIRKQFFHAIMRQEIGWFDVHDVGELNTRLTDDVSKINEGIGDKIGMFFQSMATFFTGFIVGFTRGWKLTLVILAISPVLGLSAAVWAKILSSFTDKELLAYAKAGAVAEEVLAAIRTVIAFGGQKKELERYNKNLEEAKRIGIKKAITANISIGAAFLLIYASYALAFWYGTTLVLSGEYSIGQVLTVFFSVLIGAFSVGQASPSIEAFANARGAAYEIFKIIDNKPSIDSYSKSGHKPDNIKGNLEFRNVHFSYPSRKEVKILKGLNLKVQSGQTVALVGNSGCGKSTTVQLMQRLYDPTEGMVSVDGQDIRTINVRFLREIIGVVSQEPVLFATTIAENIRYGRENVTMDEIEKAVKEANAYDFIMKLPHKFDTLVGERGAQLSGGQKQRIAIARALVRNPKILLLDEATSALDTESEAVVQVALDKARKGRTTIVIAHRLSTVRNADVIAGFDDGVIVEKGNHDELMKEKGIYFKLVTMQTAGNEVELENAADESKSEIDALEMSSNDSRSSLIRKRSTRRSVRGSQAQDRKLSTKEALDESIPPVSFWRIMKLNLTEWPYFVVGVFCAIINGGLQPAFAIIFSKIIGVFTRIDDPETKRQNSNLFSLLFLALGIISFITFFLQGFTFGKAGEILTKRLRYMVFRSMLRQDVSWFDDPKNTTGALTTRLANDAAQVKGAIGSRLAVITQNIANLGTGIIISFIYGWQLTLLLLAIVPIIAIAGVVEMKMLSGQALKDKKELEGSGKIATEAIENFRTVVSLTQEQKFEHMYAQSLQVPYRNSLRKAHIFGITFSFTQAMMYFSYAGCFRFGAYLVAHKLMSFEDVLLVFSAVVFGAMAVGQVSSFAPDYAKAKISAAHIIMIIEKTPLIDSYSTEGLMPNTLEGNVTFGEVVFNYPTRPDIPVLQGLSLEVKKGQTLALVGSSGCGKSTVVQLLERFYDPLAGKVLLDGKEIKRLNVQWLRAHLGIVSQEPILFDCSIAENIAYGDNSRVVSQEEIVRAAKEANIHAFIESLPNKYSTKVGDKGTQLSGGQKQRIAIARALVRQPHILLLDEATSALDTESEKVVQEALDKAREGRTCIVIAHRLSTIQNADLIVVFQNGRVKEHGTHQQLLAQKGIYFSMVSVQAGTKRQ

Cc1nc(Nc2n[nH]c3c2CN(C(=O)N[C@H](CN(C)C)c2ccccc2)C3(C)C)c2sccc2n1 [PF-309]
efflux ratio (P-gp): 34.9 ± 7.9
efflux ratio (BCRP; dog, ratio of B → A flux to A → B flux, >2 = substrate): 7.6
A → B (BCRP; transwell flux): ;1.4 ± 0.1 cm/s
IC50 (GEO): > 1 µM
IC50 (NCIH508): > 1 µM
IC50 (HT29): > 1 µM
IC50 (SW480): 0.0101 ± 0.0025 µM
IC50 (HCT116): 0.0047 ± 0.0009 µM
% Growth inhibition (CUCRC026 CRC PDTX model): 30%
total plasma concentrations at the trough [1]: 1 to 10 nM
